This is an account of results in publication PMC6836573, “Mitochondria-targeting fluorescent molecules for high efficiency cancer growth inhibition and imaging” (Chemical Science, 2019).

“Also recorded” adds a separate entry of the source. Bounds are passed on as bounds.

Data set [1] relates to bladder cancer T24 cell. In words: Cytotoxicity assay (direct cell counting), T24. The settings on record: for IC50: T24 cells, 3 days incubation, viable cells counted. The data set is classed as cell-based. The method, then:
(§1) Cell culture, imaging, and cytotoxicity assay
(§2) RPMI-1640 medium. NIH/3T3 was cultured in DMEM medium. A549 was cultured in F-12K medium. T24 were cultured in McCoy's 5A medium. All culture mediums were supplemented with 10% fetal bovine serum. The cells were incubated at 37 °C in an atmosphere containing 5% CO 2. […]
(§3) Cytotoxicity assay. All test cell lines were incubated in 96-well plates overnight at a density of 3000 cells/well. The culture medium was replaced with 200 μL of culture medium, into which the testing compound was dispersed at various concentrations (1.95 - 500 μM). After incubating for 3 days, the viable cell numbers were checked and directly counted under microscopy (10X). A minimum of 1mm×1mm area was counted from each of at least three widely separated regions of cell culture. The cell proliferation rate was calculated by the following formula: cell proliferation rate (%) = (average cell number of sample wells / average cell number of control wells) ×100%.
(§4) The intact culture medium was evaluated as a control. […]

The test system of data set [2] is NSCLC H838 cell. In words: Cytotoxicity assay (direct cell counting), H838. Type of data set: cell-based. The settings on record: H838 cells, 3 days incubation, viable cells counted. The procedure: as §1, §2, §3, §4
All animal experiments were performed in compliance with the Guidelines for the Care and Use of Research Animals as established by the Stanford University Animal Studies Committee. Female athymic nude mice (nu/nu) from 4−6 weeks old were obtained from Charles River Laboratories (Boston, MA, USA) and kept under sterile conditions. 5 × 106 human lung adenocarcinoma

Data set [3] can be described thus: Cytotoxicity assay (direct cell counting), NIH-3T3. The settings on record: mouse; NIH-3T3 normal cells; 3 days incubation, viable cells counted. The data set is classed as cell-based. The procedure: as §1, §2, §3, §4
The nature of data set [4]: Relative fluorescence quantum yield. The data set is classed as physicochemical. The settings on record: EtOH, relative to rhodamine 6G, excited at 425 nm. The method, then:
Quantum yield. The fluorescence quantum yields of F16s were determined according to the […]
Where Φ is the quantum yield, F is the integrated area under the corrected emission spectrum, and A is the absorbance at the excitation wavelength; the subscripts x and s refer to F16s and the standard, respectively. Rhodamine 6G (ΦF = 95%) in ethanol was used as the standard. All F16s and Rhodamine 6G were dissolved in ethanol in 5 different concentrations with the absorbance lower than 0.1 at 425nm. The corresponding 5 different fluorescences of F16s and Rhodamine 6G were excited at 425 nm and the emission spectra from 450 nm to 650 nm were obtained for the following integrated area measurement. All data were analyzed using Origin Pro 9.0 software (OriginLab, Northampton, Massachusetts, USA) to get the F16s final quantum yield. […]

Data set [5] in a line: Photostability under continuous excitation. The settings on record: water, 10 μM, continuously excited for 50 min. The data set is classed as physicochemical. The method, then:
bandpass filter (MF559-34, Thorlabs, Newton, New Jersey, USA) was used to excite Mitotracker
Red. All the dyes were dissolved in water at a 10 µM concentration in 700 µL micro quartz cuvettes (10 mm, Sigma-Aldrich, St. Louis, MO, USA). They were continuously excited for 50 mins.
During this period, the fluorescence intensity was measured every 5 mins at 525 nm (F16s, Rhodamine 6G, Mitotracker Green) or 600 nm (Mitotracker Red). Relative fluorescence intensity change was monitored over time. […]

The nature of data set [6]: Absorption and emission spectra in water. Type of data set: physicochemical. The settings on record: 31 μM.
On the set-up of data set [7]: method as in PMID 19072739, PMID 10656430, PMID 12154051. The settings on record: study halted at Phase II; cited from earlier work.
Details of data set [8]: method as in earlier work. The settings on record: in ethanol, used as the standard; ref 2 of the supplement; cited from earlier work.

In the case of `Cn1cc(/C=C/c2cc[n+](C)cc2)c2cc(F)ccc21` [1-MeFF16], the IC50 in data set [1] (Homo sapiens, T-24, 72 h) is 21.7 µM; in data set [2] (Homo sapiens, NCI-H838, 72 h), 19.1 µM. In data set [3], this compound registered an IC50 at 3 days of 104 µM. The results for the “Quantum Yield” value in data set [4] and in data set [4] (listed as 1) were 13.6% and “around 12%”, respectively. In addition, the photostability result in data set [5] (listed as 1) is “bleached quite easily; also recorded: dramatically decreased photostability”.
For the compound `C[n+]1ccc(/C=C/c2c[nH]c3ccc(C#N)cc23)cc1` [5-CNF16], the IC50 in data set [1] (Homo sapiens, T-24, 72 h) worked out at 316 µM; in data set [2] (Homo sapiens, NCI-H838, 72 h), 20 µM. The results for the “Quantum Yield” value in data set [4] and in data set [4] (listed as 6) were 9.7% and “under 10%”, respectively.
Take `Cc1ccc2[nH]c(C)c(/C=C/c3cc[n+](C)cc3)c2c1` [2-Me-5-MeF16]: the IC50 in data set [1] (Homo sapiens, T-24, 72 h) is 68.8 µM; in data set [2] (Homo sapiens, NCI-H838, 72 h) it was 17.3 µM. Also, half-maximal inhibition in data set [3] (IC50 at 3 days) was put at 161 µM. Moreover, the “Quantum Yield” value in data set [4] was 18.1%; in data set [4] (listed as 9), “around 20%”. Moreover, in data set [5] (listed as 9), the photostability entry is given as “bleached quite easily; also recorded: poor photostability”. Also, the absorption peak entry in data set [6] was “about 450 nm”.
Regarding `C[n+]1ccc(/C=C/c2c[nH]c3c2ccc2ccccc23)cc1` [PhF16], the concentration for half-maximal inhibition (IC50) in data set [1] (Homo sapiens, T-24, 72 h) turned out to be 1.02 µM; in data set [2] (Homo sapiens, NCI-H838, 72 h), 1.5 µM. The half-maximal inhibitory concentration (IC50) at 3 days in data set [3] is 0.28 µM. The “Quantum Yield” value in data set [4] was 12.2%; in data set [4] (listed as 2), “around 12%”.
Regarding `C[n+]1ccc(/C=C/c2c[nH]c3ccccc23)cc1` [F16, reference compound], the IC50 was 18.8 µM in data set [1] and 46.6 µM in data set [2].
Consider `C[n+]1ccc(/C=C/c2c[nH]c3ccc(F)cc23)cc1` [FF16], for which the selectivity indices in data set [1] (3T3 versus T24 and H838) is above 10. Moreover, the half-inhibitory concentration (IC50) was 6.26 µM in data set [1] (Homo sapiens, T-24, 72 h) and 3.63 µM in data set [2] (Homo sapiens, NCI-H838, 72 h). Also, in data set [3], the 50% inhibitory concentration (IC50) at 3 days is 75.1 µM. Besides, the “Quantum Yield” value in data set [4] was 18.5%; in data set [4] (listed as 7), “around 20%”.
Consider `CCn1c(=O)/c(=C2\Sc3ccccc3N2C)s/c1=C\c1cccc[n+]1CC.[Cl-]` [MKT-077], for which, in data set [7], the “anti-tumor effect in clinical trial” value is listed as “limited anti-tumor effect” and the “nephrotoxicity in clinical trial” value is reported as “mild nephrotoxicity”.
As for `CC/N=c1\cc2oc3cc(NCC)c(C)cc3c(-c3ccccc3C(=O)OCC)c-2cc1C` [rhodamine 6G], in data set [8], the “Quantum Yield of the standard” value is 95%.
For `C[n+]1ccc(/C=C/c2c[nH]c3c(F)cc(I)cc23)cc1` [5-I-7-FF16], the IC50 amounted to 3.83 µM in data set [1] (Homo sapiens, T-24, 72 h) and 1.29 µM in data set [2] (Homo sapiens, NCI-H838, 72 h). In addition, in data set [3], half-maximal inhibition (IC50 at 3 days) was put at 14.2 µM. The “Quantum Yield” value in data set [4] is recorded as 4.5%; in data set [4] (listed as 10), “under 10%”.
Take `C[n+]1ccc(/C=C/c2c[nH]c3ccc([N+](=O)[O-])cc23)cc1` [NO2F16]: the concentration for half-maximal inhibition (IC50) in data set [1] (Homo sapiens, T-24, 72 h) is 73.8 µM; in data set [2] (Homo sapiens, NCI-H838, 72 h) it was 4.7 µM. For the same compound, the IC50 at 3 days in data set [3] amounted to 86 µM. The “Quantum Yield” value in data set [4] is listed as 1.24%; in data set [4] (listed as 11), “under 10%”.
Turning to `C[n+]1ccc(/C=C/c2c(-c3ccccc3)[nH]c3ccccc23)cc1` [2-PhF16], the IC50 in data set [1] (Homo sapiens, T-24, 72 h) worked out at 4.02 µM; in data set [2] (Homo sapiens, NCI-H838, 72 h) it was 3.74 µM. The compound also had a 50% inhibitory concentration (IC50) at 3 days in data set [3] of 0.326 µM. In addition, the “Quantum Yield” value in data set [4] is 5.8%; in data set [4] (listed as 5), “under 10%”. In addition, in data set [6], the absorption peak result was “about 450 nm”.
In the case of `C[n+]1ccc(/C=C/c2c(Cl)[nH]c3ccccc23)cc1` [2-ClF16], the IC50 in data set [1] (Homo sapiens, T-24, 72 h) stood at 54.7 µM; in data set [2] (Homo sapiens, NCI-H838, 72 h) it was 25.7 µM. This compound came in with an IC50 at 3 days in data set [3] of 13.8 µM. The “Quantum Yield” value was 8.6% in data set [4] and “under 10%” in data set [4] (listed as 8). Also, the photostability entry in data set [5] (listed as 8) is given as “bleached quite easily; also recorded: poor photostability”.
Turning to `C[n+]1ccc(/C=C/c2c[nH]c3ccc(Br)cc23)cc1` [5-BrF16], the IC50 was 1.84 µM in data set [1] (Homo sapiens, T-24, 72 h) and 1.2 µM in data set [2] (Homo sapiens, NCI-H838, 72 h). Besides, in data set [3], the half-maximal inhibitory concentration (IC50) at 3 days turned out to be 11.6 µM. In addition, the “Quantum Yield” value in data set [4] is on record as 49.1%.

A word on the IC50: it is the concentration needed to halve the response being measured. Low readings indicate greater potency, high ones weaker potency.
